Drawing on patent US3985761A, “Nitrothiazolyl derivatives of nitrostyrene” (priority 1974, dated 1976), this text covers MIC and responders for 15 molecules.

≈ marks a conversion by molar mass, not a printed value. A value given as a limit tells only on which side of the number the result lay.

The subject of one assay is Ps. aeruginosa. As to the kind of experiment: Antimicrobial serial dilution (MIC), P.a. The assay is classed as cell-based. Particulars: Pseudomonas aeruginosa.
In another assay the test system is Staph. aureus. The assay can be described thus: Antimicrobial serial dilution (MIC), S.a. The assay is classed as cell-based. To be noted: Staphylococcus aureus.
In a further assay the test system is Proteus vulgaris ox 19. As to the kind of experiment: Antimicrobial serial dilution (MIC), Pr.ox. Particulars: OX19. The format is cell-based.
The subject of assay [1] is antibiotic resistant Staph aureus. The assay can be described thus: Antimicrobial serial dilution (MIC), A/R S.a. The assay is classed as cell-based. Particulars: Staphylococcus aureus, read-out: MIC A/R S.a.
For another assay, the system named is S.Shigae. The assay can be described thus: microbe, parasite or virus in culture. The format is cell-based. Particulars: Shigella dysenteriae, read-out: MIC S.s.
The next assay deals with S. typhi. As to the kind of experiment: Antimicrobial serial dilution (MIC), S.t. The assay is classed as cell-based. To be noted: Salmonella enterica.
The subject of a further assay is E.coli. The assay can be described thus: Antimicrobial serial dilution (MIC), E.c. The assay is classed as cell-based. To be noted: Escherichia coli.
The subject of another assay is Phialophora jeanselmei. As to the kind of experiment: Antimicrobial serial dilution (MIC), Ph.je. The assay is classed as cell-based. To be noted: Exophiala jeanselmei.
The test system of the next assay is Aspergillus fumigatus. As to the kind of experiment: Antimicrobial serial dilution (MIC), A.f. The assay is classed as cell-based.
Assay [2] concerns Trichophyton mentagrophytes. The assay can be described thus: Antimicrobial serial dilution (MIC), T.m. The assay is classed as cell-based.
A further assay concerns microsporum gypseum. The assay can be described thus: Antimicrobial serial dilution (MIC), M.gy. The format is cell-based. Particulars: Nannizzia gypsea.
In another assay the test system is Nocardia asteroides. The assay can be described thus: Antimicrobial serial dilution (MIC), N.a. The format is cell-based.
The subject of a further assay is Candida albicans. As to the kind of experiment: Antimicrobial serial dilution (MIC), C.a. The assay is classed as cell-based.
The subject of another assay is Hymenolepsis nana. As to the kind of experiment: Activity against tapeworms Hymenolepsis nana in mice. Particulars: Mus musculus, po, 72 h; 400 mg/kg/day × 3 days, gavage; surviving mice only; read-out: Activity: % of infected mice getting 100% clearance. The format is in vivo, Hymenolepsis nana (infected Albimo mice). As to the method: The anthelmintic properties of the products of the invention have been determined as follows:
Albimo mice of either sex (18-20 g.weight range) were administered by gavage 0.2 ml of the standard inoculum (containing 1000 viable eggs). 20 days later, the faecal matter was checked for Hymenolipis nana eggs. Mice showing the presence of H nana eggs were taken for experiments. They were classified on the weight basis. 5 animals were taken in each cage.
Compounds of the invention under investigation were suspended in 0.2% tragacanth. Concentrations were adjusted in such a way that 0.2 ml conformed to particular dosage schedule for each compound. They were administered by gavage in fasting condition in the morning on 21st day post infection, once daily for 3 consecutive days. For each set of test compound group, one cage of infected control mice was kept. These received saline for 3 days.
After 3 consecutive days of administration, all mice were kept fasting on the subsequent day (24th day post infection) and sacrificed on the 25th day. Results of surviving mice only have been taken. From each mouse, the whole intestine including caecum was collected in a petri dish with water. It was cut open longitudinally and was examined for adult worms and scolices. Absolute clearance of worms and scolices in individual mouse was taken as a criterion for assessing the results of each group.
The data on some of the compounds studied are represented in Table II

For the molecule `CC(=Cc1ccc(Oc2ncc([N+](=O)[O-])s2)cc1)[N+](=O)[O-]` [drawing 9], the MIC is at least 50 µg/mL in the assay on Ps. aeruginosa; 1.56 µg/mL (≈ 5.08 µM) in the assay on Staph. aureus; 1.56 to 3.12 µg/mL (≈ 5.08 to 10.2 µM) with Proteus vulgaris ox 19; 1.56 µg/mL (≈ 5.08 µM) in assay [1]; 3.12 µg/mL (≈ 10.2 µM) in the assay on S.Shigae; 50 µg/mL (≈ 163 µM) against S. typhi. This molecule also had an MIC with E.coli of 3.12 µg/mL (≈ 10.2 µM).

Consider `CC(=Cc1ccc(O)c(Cl)c1)[N+](=O)[O-]` [drawing 10], for which the MIC against Ps. aeruginosa is at least 50 µg/mL; against Staph. aureus, 3.12 µg/mL (≈ 14.6 µM); against Proteus vulgaris ox 19, 6.25 µg/mL (≈ 29.3 µM); in assay [1] it was 3.12 µg/mL (≈ 14.6 µM); in the assay on S.Shigae, 25 µg/mL (≈ 117 µM); with S. typhi it was 50 µg/mL (≈ 234 µM). This molecule had an MIC with E.coli of 12.5 to 25 µg/mL (≈ 58.5 to 117 µM).

For the molecule `O=[N+]([O-])C=Cc1cc(Cl)ccc1O` [drawing 11], the MIC is at least 50 µg/mL with Ps. aeruginosa; 3.12 µg/mL (≈ 15.7 µM) with Staph. aureus; 25 µg/mL (≈ 125 µM) with Proteus vulgaris ox 19; 3.12 µg/mL (≈ 15.7 µM) in [1]; 50 µg/mL (≈ 251 µM) in the assay with S.Shigae; 50 µg/mL (≈ 251 µM) against S. typhi. Further, in the assay on E.coli, the MIC is 50 µg/mL (≈ 251 µM).

With `CC(=Cc1ccc(OC(=O)Nc2ccc(Br)cc2)c(Cl)c1)[N+](=O)[O-]` [drawing 12], the MIC against Ps. aeruginosa was at least 50 µg/mL; with Staph. aureus it was 6.25 µg/mL (≈ 15.2 µM); in the assay with Proteus vulgaris ox 19, 6.25 µg/mL (≈ 15.2 µM); in assay [1] it was 6.25 µg/mL (≈ 15.2 µM); with S.Shigae it was 25 µg/mL (≈ 60.7 µM); with S. typhi it was over 50 µg/mL. The molecule further registered an MIC against E.coli of 50 µg/mL (≈ 121 µM).

In the case of `CC(=Cc1ccc(OC(=O)Nc2ccc(C)cc2)cc1)[N+](=O)[O-]` [drawing 13], the MIC against Phialophora jeanselmei is 6.25 µg/mL (≈ 20 µM); in the assay with Aspergillus fumigatus, 12.5 µg/mL (≈ 40 µM); in assay [2] it was 3.12 µg/mL (≈ 10 µM); in the assay on microsporum gypseum, 1.56 to 3.12 µg/mL (≈ 4.99 to 10 µM); against Nocardia asteroides it was 25.5 µg/mL (≈ 81.6 µM); in the assay with Candida albicans it was 12.5 µg/mL (≈ 40 µM).

For the molecule `CC(=Cc1ccc(OC(=O)Nc2ccc(Br)cc2)cc1)[N+](=O)[O-]` [drawing 14], the MIC in the assay with Phialophora jeanselmei was 1.56 µg/mL (≈ 4.14 µM); against Aspergillus fumigatus, 12.5 µg/mL (≈ 33.1 µM); in [2], 1.56 µg/mL (≈ 4.14 µM); with microsporum gypseum, 1.56 µg/mL (≈ 4.14 µM); in the assay on Nocardia asteroides, 50 µg/mL (≈ 133 µM); against Candida albicans it was 22.5 to 25 µg/mL (≈ 59.7 to 66.3 µM).

With `CCCCNC(=O)Oc1ccc(C=C(C)[N+](=O)[O-])cc1` [drawing 15], the MIC with Phialophora jeanselmei was 0.78 µg/mL (≈ 2.8 µM); against Aspergillus fumigatus, 6.25 µg/mL (≈ 22.5 µM); in assay [2] it was 0.78 µg/mL (≈ 2.8 µM); against microsporum gypseum, 0.39 to 0.78 µg/mL (≈ 1.4 to 2.8 µM); in the assay on Nocardia asteroides, 50 µg/mL (≈ 180 µM); in the assay with Candida albicans, 12.5 to 25 µg/mL (≈ 44.9 to 89.8 µM).

Regarding `CC(=Cc1ccc(OC(=O)NC2CCCCC2)cc1)[N+](=O)[O-]` [drawing 16], the MIC is 6.25 µg/mL (≈ 20.5 µM) with Phialophora jeanselmei; 6.25 to 12.5 µg/mL (≈ 20.5 to 41.1 µM) in the assay with Aspergillus fumigatus; 0.78 µg/mL (≈ 2.56 µM) in assay [2]; 6.25 µg/mL (≈ 20.5 µM) against microsporum gypseum; 50 µg/mL (≈ 164 µM) with Nocardia asteroides; 25 µg/mL (≈ 82.1 µM) against Candida albicans.

Take `CC(=Cc1ccc(OC(=O)Nc2ccccc2)cc1)[N+](=O)[O-]` [drawing 17]: the MIC was 3.12 µg/mL (≈ 10.5 µM) against Phialophora jeanselmei; 6.25 µg/mL (≈ 21 µM) against Aspergillus fumigatus; 3.12 to 6.25 µg/mL (≈ 10.5 to 21 µM) in [2]; 3.12 µg/mL (≈ 10.5 µM) with microsporum gypseum; 25 µg/mL (≈ 83.8 µM) with Nocardia asteroides; 25 µg/mL (≈ 83.8 µM) with Candida albicans.

With `CC(=Cc1cccc(O)c1)[N+](=O)[O-]` [drawing 18], the MIC against Phialophora jeanselmei worked out at 3.12 µg/mL (≈ 17.4 µM); with Aspergillus fumigatus it was 6.25 µg/mL (≈ 34.9 µM); in assay [2], 1.56 µg/mL (≈ 8.71 µM); with microsporum gypseum it was 1.56 µg/mL (≈ 8.71 µM); in the assay on Nocardia asteroides, 25 µg/mL (≈ 140 µM); in the assay on Candida albicans, 12.5 µg/mL (≈ 69.8 µM).

`CC(=Cc1ccc(Oc2ncc([N+](=O)[O-])s2)cc1)[N+](=O)[O-]` [drawing 19]: the MIC is 0.39 µg/mL (≈ 1.27 µM) with Phialophora jeanselmei; 1.56 µg/mL (≈ 5.08 µM) in the assay on Aspergillus fumigatus; 0.19 µg/mL (≈ 0.618 µM) in [2]; 0.39 to 0.78 µg/mL (≈ 1.27 to 2.54 µM) in the assay on microsporum gypseum; 12.5 µg/mL (≈ 40.7 µM) with Nocardia asteroides; 3.12 µg/mL (≈ 10.2 µM) with Candida albicans.

Regarding `CC(=Cc1ccc(O)c(Cl)c1)[N+](=O)[O-]` [drawing 20], the MIC against Phialophora jeanselmei worked out at 3.12 µg/mL (≈ 14.6 µM); against Aspergillus fumigatus it was 6.25 µg/mL (≈ 29.3 µM); in [2], 1.56 µg/mL (≈ 7.3 µM); against microsporum gypseum, 1.56 µg/mL (≈ 7.3 µM); with Nocardia asteroides, 50 µg/mL (≈ 234 µM); in the assay on Candida albicans, 12.5 µg/mL (≈ 58.5 µM).

`O=[N+]([O-])C=Cc1cc(Cl)ccc1O` [drawing 21]: the MIC is 12.5 µg/mL (≈ 62.6 µM) in the assay on Phialophora jeanselmei; 12.5 µg/mL (≈ 62.6 µM) in the assay with Aspergillus fumigatus; 6.25 µg/mL (≈ 31.3 µM) in assay [2]; 6.25 to 12.5 µg/mL (≈ 31.3 to 62.6 µM) against microsporum gypseum; 25 µg/mL (≈ 125 µM) in the assay with Nocardia asteroides; 25.5 µg/mL (≈ 128 µM) in the assay with Candida albicans.

As for `CC(=Cc1ccc(OC(=O)Nc2ccc(Br)cc2)c(Cl)c1)[N+](=O)[O-]` [drawing 22], the MIC with Phialophora jeanselmei came out at 3.12 µg/mL (≈ 7.59 µM); against Aspergillus fumigatus it was 6.25 µg/mL (≈ 15.2 µM); in [2] it was 1.56 µg/mL (≈ 3.79 µM); in the assay on microsporum gypseum, 1.56 µg/mL (≈ 3.79 µM); against Nocardia asteroides, 50 µg/mL (≈ 121 µM); with Candida albicans it was 25 µg/mL (≈ 60.7 µM).

`CC(=Cc1ccc(OC(=O)Nc2ccccc2)cc1)[N+](=O)[O-]` [drawing 25]: in the assay with Hymenolepsis nana, the responders at 400 mg/kg was determined as 100%.
